From patent publication US10973933B2, “Nanoparticles for diagnosis and treatment of tumors” (GWANGJU INSTITUTE OF SCIENCE AND TECHNOLOGY, priority 2015, dated 2021)

Tests used:
[1] = In vitro laser induced phototherapy, cell viability; type: cell-based; conditions: mouse, SCC7 cells, PB 80 μg/ml, ICG 10 μg/ml, read-out: cell viability without laser treatment
Protocol: (§1) Next, the cells were completely cleaned and fresh medium was added to each of the wells. Next, the cells were irradiated with an 808 nm NIR laser beam for 5 minutes.
(§2) After laser irradiation, the cells were further cultured for 12 hours, and cell viability was measured by WST-1 analysis.

SCC7 cells [2] = test: as above; type: cell-based; conditions: Mus musculus, SCC-7, light or radiation study, 5 min, 808 nm, 1 W/cm^2, 5 minutes, PB 80 μg/ml, ICG 10 μg/ml, read-out: cell viability after NIR laser irradiation
Protocol: as §1, §2

SCC7 tumor [3] = test: In vivo and ex vivo NIR fluorescence bio-distribution (IVIS); parameters: species or system mice
Protocol: The same group of mice was investigated as to NIR fluorescence signals by an in vivo imaging system (IVIS).
The free ICG solution (2 mg/kg) was injected into other mice as a control group for IVIS imaging. […] Gradual reduction of the signals means that free ICG molecules were quickly discharged from the bodies of the mice (FIG. 8b).
In-vivo bio-distribution of the PB-BSA-ICG nanoparticles and free ICG was analyzed by optical fluorescence imaging. […] Fluorescence signals in the mice subjected to injection of free ICG (2 mg/kg) were also recorded at time intervals similar to those set forth above.
The mice were sacrificed 24 hours after injection, and fluorescence signals (liver, lung, spleen, heart, and kidney) from resected tumors and major organs were measured.

[4] = Photothermal properties of solutions under 808 nm NIR laser; conditions: 1 W/cm^2, ICG 10 μg/ml
Protocol: 500 μl of each of the solutions was placed in a centrifuge tube and irradiated with an NIR laser beam at a power density of 1 W/cm^2 and temperature change of the solutions receiving the laser beam was measured in real time by an infrared (IR) thermal imaging system (FLIR SC-300, FLIR Systems Inc., Danderyd, Sweden).

SCC7 cells [5] = test: Intracellular singlet oxygen generation with H2DCF-DA probe; type: cell-based; conditions: SCC7, after 808 nm laser irradiation
Protocol: Further, free ICG has photodynamic properties and can generate singlet oxygen (^1O2) when exposed to an 808 nm NIR laser beam. Generation of intracellular singlet oxygen (^1O2) was analyzed using 2′,7′-dichlorodihydrofluorescein diacetate (H2DCF-DA) dye as a reactive oxygen species (ROS) probe.

SCC7 tumor [6] = type: in vivo
Protocol: 24 hours after injection, tumor sites of all of the mice were irradiated with a continuous wave NIR laser beam (808 nm, 1 W/cm^2, 10 minutes) for phototherapy, and real-time temperature increase during laser irradiation was monitored by an IR thermal camera (FIGS. 10a and 10b).
In-vivo phototherapy: The tumor-xenograft mice were produced in the same manner as described above. The mice, in which tumors had grown to a desired volume (about 100 mm^3), were divided into four groups, that is, a saline solution group, a free ICG group, a PB-BSA nanoparticle group, and PB-BSA-ICG nanoparticle group. According to the groups, each sample was injected into a vein of the corresponding mouse (administration of 2 mg/kg of ICG, administration of 20 mg/kg of PB).
24 hours after injection, the tumor of each of the mice was exposed to an 808 nm NIR laser beam (1 W/cm^2) for 10 minutes, real-time temperature change of the tumor region during laser treatment was monitored by an IR thermal imaging system. The size of the tumor after treatment was measured at a specific time point using a digital caliper.

[7] = repeated laser irradiation, 3 minutes per cycle
[8] = 808 nm, 1 W/cm^2, 10 minutes, 24 hours after injection

For `CC1(C)C(/C=C/C=C/C=C/C=C2\N(CCCCS(=O)(=O)O)c3ccc4ccccc4c3C2(C)C)=[N+](CCCCS(=O)(=O)[O-])c2ccc3ccccc3c21` [free ICG, Indocyanine green], the viability at 24 h, 10 μg/ml [1] was ~100%, the viability at 10 µg/mL (SCC7 cells [2]) was 55% and the “in vivo NIR fluorescence signal distribution” value (SCC7 tumor [3]; 3 hours after injection, 2 mg/kg) was “strong signals at liver sites”. The “ex vivo fluorescence signals of livers” value (SCC7 tumor [3]; 24 hours after injection) was “significantly high fluorescence signals”, the “ex vivo fluorescence signals of tumors” value (SCC7 tumor [3]; 24 hours after injection) was “low signals” and the temperature increase ([4]; laser irradiation for 5 minutes, 808 nm, PB 80 μg/ml) was 10 °C. For the same compound, the “temperature increase, first cycle” value [4, 7] was “about 10 °C”, the “temperature increase, second cycle” value [4, 7] was “about 6 °C” and the “temperature increase, third cycle” value [4, 7] was 2.5 °C. For the same compound, the “intracellular ^1O2 generation (green fluorescence of H2DCF-DA)” value (SCC7 cells [5]) was “intracellular green fluorescence signals were observed”, the “average temperature increase of tumor” value (SCC7 tumor [6]; [8]) was “about 6 °C” and the final tumor temperature (SCC7 tumor [6]; [8]) was 42 °C. For the same compound, the “tumor response after laser treatment” value (SCC7 tumor [6]; monitored for 14 days, ICG 2 mg/kg, PB 20 mg/kg) was “did not exhibit meaningful tumor regression”.
